Laboratory results taken from patent US11078216B2, “Bisaryl amides as NRF2 activators” (GLAXOSMITHKLINE INTELLECTUAL PROPERTY DEVELOPMENT LIMITED, priority 2016, dated 2021).

Tested on: NRF2 (NQO1 activity as marker for NRF2 activation), BEAS-2B cells
Assay: BEAS-2B NQO1 MTT Assay
Type: cell-based
Conditions: Homo sapiens, EC50 of NQO1 specific activity induction, 48 hours incubation, read-out: EC50
Summary of the method: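 As a marker of NRF2 activation, NQO1 specific activity was read from the rate of absorbance change at 570 nm in MTT cocktail over 30 minutes. Lysates came from BEAS-2B cells treated for 48 hours at 37° C, and EC50 was derived by 3-parameter fitting.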

`CC[C@@H]1CN(Cc2cc([C@@H](c3ccc4c(nnn4CC)c3C)C(C)(C)NC(=O)c3cnc(SC)nc3)ccc2C)S(=O)(=O)c2ccccc2O1` [Example 147, N-((S)-1-(3-(((R)-4-Ethyl-1,1-dioxido-3,4-dihydro-2H-benzo[b][1,4,5]oxathiazepin-2-yl)methyl)-4-methylphenyl)-1-(1-ethyl-4-methyl-1H-benzo[d][1,2,3]triazol-5-yl)-2-methylpropan-2-yl)-2-(methylthio)pyrimidine-5-carboxamide] gave an EC50 of 10 to 100 nM.

Molecule `CC[C@@H]1CN(Cc2cc([C@@H](c3ccc4c(nnn4CC)c3C)C(C)(C)NC(=O)c3c[nH]cn3)ccc2C)S(=O)(=O)c2ccccc2O1` [Example 148, N-((S)-1-(3-(((R)-4-Ethyl-1,1-dioxido-3,4-dihydro-2H-benzo[b][1,4,5]oxathiazepin-2-yl)methyl)-4-methylphenyl)-1-(1-ethyl-4-methyl-1H-benzo[d][1,2,3]triazol-5-yl)-2-methylpropan-2-yl)-1H-imidazole-4-carboxamide] has an EC50 of 100 to 1000 nM.

With `CC[C@@H]1CN(Cc2cc([C@@H](c3ccc4c(nnn4CC)c3C)C(C)(C)NC(=O)c3cscn3)ccc2C)S(=O)(=O)c2ccccc2O1` [Example 149, N-((S)-1-(3-(((R)-4-Ethyl-1,1-dioxido-3,4-dihydro-2H-benzo[b][1,4,5]oxathiazepin-2-yl)methyl)-4-methylphenyl)-1-(1-ethyl-4-methyl-1H-benzo[d][1,2,3]triazol-5-yl)-2-methylpropan-2-yl)thiazole-4-carboxamide] the EC50 was 10 to 100 nM.

Molecule `CC[C@@H]1CN(Cc2cc([C@@H](c3ccc4c(nnn4CC)c3C)C(C)(C)NC(=O)c3cc[nH]n3)ccc2C)S(=O)(=O)c2ccccc2O1` [Example 150, N-((S)-1-(3-(((R)-4-Ethyl-1,1-dioxido-3,4-dihydro-2H-benzo[b][1,4,5]oxathiazepin-2-yl)methyl)-4-methylphenyl)-1-(1-ethyl-4-methyl-1H-benzo[d][1,2,3]triazol-5-yl)-2-methylpropan-2-yl)-1H-pyrazole-3-carboxamide] has an EC50 of 10 to 100 nM.

`CC[C@@H]1CN(Cc2cc([C@@H](c3ccc4c(nnn4CC)c3C)C(C)(C)NC(=O)c3cocn3)ccc2C)S(=O)(=O)c2ccccc2O1` [Example 151, N-((S)-1-(3-(((R)-4-Ethyl-1,1-dioxido-3,4-dihydro-2H-benzo[b][1,4,5]oxathiazepin-2-yl)methyl)-4-methylphenyl)-1-(1-ethyl-4-methyl-1H-benzo[d][1,2,3]triazol-5-yl)-2-methylpropan-2-yl)oxazole-4-carboxamide] showed an EC50 of 10 to 100 nM.

Work on `CC[C@@H]1CN(Cc2cc([C@@H](c3ccc4c(nnn4CC)c3C)C(C)(C)NC(=O)c3ccno3)ccc2C)S(=O)(=O)c2ccccc2O1` [Example 152, N-((S)-1-(3-(((R)-4-Ethyl-1,1-dioxido-3,4-dihydro-2H-benzo[b][1,4,5]oxathiazepin-2-yl)methyl)-4-methylphenyl)-1-(1-ethyl-4-methyl-1H-benzo[d][1,2,3]triazol-5-yl)-2-methylpropan-2-yl)isoxazole-5-carboxamide] yielded an EC50 of 1 to 10 nM.

Work on `CC[C@@H]1CN(Cc2cc([C@@H](c3ccc4c(nnn4CC)c3C)C(C)(C)NC(=O)c3ccon3)ccc2C)S(=O)(=O)c2ccccc2O1` [Example 153, N-((S)-1-(3-(((R)-4-Ethyl-1,1-dioxido-3,4-dihydro-2H-benzo[b][1,4,5]oxathiazepin-2-yl)methyl)-4-methylphenyl)-1-(1-ethyl-4-methyl-1H-benzo[d][1,2,3]triazol-5-yl)-2-methylpropan-2-yl)isoxazole-3-carboxamide] yielded an EC50 of 10 to 100 nM.

Molecule `CC[C@@H]1CN(Cc2cc([C@@H](c3ccc4c(nnn4CC)c3C)C(C)(C)NC(=O)c3cncc(F)c3)ccc2C)S(=O)(=O)c2ccccc2O1` [Example 154, N-((S)-1-(3-(((R)-4-Ethyl-1,1-dioxido-3,4-dihydro-2H-benzo[b][1,4,5]oxathiazepin-2-yl)methyl)-4-methylphenyl)-1-(1-ethyl-4-methyl-1H-benzo[d][1,2,3]triazol-5-yl)-2-methylpropan-2-yl)-5-fluoronicotinamide] has an EC50 of 10 to 100 nM.

Work on `CC[C@@H]1CN(Cc2cc([C@@H](c3ccc4c(nnn4CC)c3C)C(C)(C)NC(=O)c3cncc(C(F)(F)F)c3)ccc2C)S(=O)(=O)c2ccccc2O1` [Example 155, N-((S)-1-(3-(((R)-4-Ethyl-1,1-dioxido-3,4-dihydro-2H-benzo[b][1,4,5]oxathiazepin-2-yl)methyl)-4-methylphenyl)-1-(1-ethyl-4-methyl-1H-benzo[d][1,2,3]triazol-5-yl)-2-methylpropan-2-yl)-5-(trifluoromethyl) nicotinamide] yielded an EC50 of 10 to 100 nM.

With `CC[C@@H]1CN(Cc2cc([C@@H](c3ccc4c(nnn4CC)c3C)C(C)(C)NC(=O)c3ccc(=O)[nH]c3)ccc2C)S(=O)(=O)c2ccccc2O1` [Example 156, N-((S)-1-(3-(((R)-4-Ethyl-1,1-dioxido-3,4-dihydro-2H-benzo[b][1,4,5]oxathiazepin-2-yl)methyl)-4-methylphenyl)-1-(1-ethyl-4-methyl-1H-benzo[d][1,2,3]triazol-5-yl)-2-methylpropan-2-yl)-6-oxo-1,6-dihydropyridine-3-carboxamide] the EC50 was 100 to 1000 nM.

Molecule `CC[C@@H]1CN(Cc2cc([C@@H](c3ccc4c(nnn4CC)c3C)C(C)(C)NC(=O)c3cnc(S(C)(=O)=O)nc3)ccc2C)S(=O)(=O)c2ccccc2O1` [Example 157, N—((S)-1-(3-(((R)-4-Ethyl-1,1-dioxido-3,4-dihydro-2H-benzo[b][1,4,5]oxathiazepin-2-yl)methyl)-4-methylphenyl)-1-(1-ethyl-4-methyl-1H-benzo[d][1,2,3]triazol-5-yl)-2-methylpropan-2-yl)-2-(methylsulfonyl)pyrimidine-5-carboxamide] has an EC50 of 100 to 1000 nM.

Molecule `CC[C@@H]1CN(Cc2cc([C@@H](c3ccc4c(nnn4CC)c3C)C(C)(C)NC(=O)c3cnc(N4CCC4)nc3)ccc2C)S(=O)(=O)c2ccccc2O1` [Example 158, 2-(Azetidin-1-yl)-N—((S)-1-(3-(((R)-4-ethyl-1,1-dioxido-3,4-dihydro-2H-benzo[b][1,4,5]oxathiazepin-2-yl)methyl)-4-methylphenyl)-1-(1-ethyl-4-methyl-1H-benzo[d][1,2,3]triazol-5-yl)-2-methylpropan-2-yl)pyrimidine-5-carboxamide] has an EC50 of 10 to 100 nM.

`CC[C@@H]1CN(Cc2cc([C@@H](c3ccc4c(nnn4CC)c3C)C(C)(C)NC(=O)c3cnc(N4CCCC4)nc3)ccc2C)S(=O)(=O)c2ccccc2O1` [Example 159, N-((S)-1-(3-(((R)-4-Ethyl-1,1-dioxido-3,4-dihydro-2H-benzo[b][1,4,5]oxathiazepin-2-yl)methyl)-4-methylphenyl)-1-(1-ethyl-4-methyl-1H-benzo[d][1,2,3]triazol-5-yl)-2-methylpropan-2-yl)-2-(pyrrolidin-1-yl)pyrimidine-5-carboxamide] was tested, and the EC50 was 10 to 100 nM.

`CC[C@@H]1CN(Cc2cc([C@@H](c3ccc4c(nnn4CC)c3C)C(C)(C)NC(=O)c3cnc(OCCCOC)nc3)ccc2C)S(=O)(=O)c2ccccc2O1` [Example 160, N-((S)-1-(3-(((R)-4-Ethyl-1,1-dioxido-3,4-dihydro-2H-benzo[b][1,4,5]oxathiazepin-2-yl)methyl)-4-methylphenyl)-1-(1-ethyl-4-methyl-1H-benzo[d][1,2,3]triazol-5-yl)-2-methylpropan-2-yl)-2-(3-methoxypropoxy)pyrimidine-5-carboxamide] was tested, and the EC50 was 1 to 10 nM.

`CC[C@@H]1CN(Cc2cc([C@@H](c3ccc4c(nnn4CC)c3C)C(C)(C)NC(=O)c3cnc(OCCO)nc3)ccc2C)S(=O)(=O)c2ccccc2O1` [Example 161, N-((S)-1-(3-(((R)-4-Ethyl-1,1-dioxido-3,4-dihydro-2H-benzo[b][1,4,5]oxathiazepin-2-yl)methyl)-4-methylphenyl)-1-(1-ethyl-4-methyl-1H-benzo[d][1,2,3]triazol-5-yl)-2-methylpropan-2-yl)-2-(2-hydroxyethoxy)pyrimidine-5-carboxamide] showed an EC50 of 10 to 100 nM.

In the case of `CC[C@@H]1CN(Cc2cc([C@@H](c3ccc4c(nnn4CC)c3C)C(C)(C)NC(=O)c3cnc(N(C)C)nc3)ccc2C)S(=O)(=O)c2ccccc2O1` [Example 162], the EC50 is reported as 10 to 100 nM.

Molecule `CCOCCOc1ncc(C(=O)NC(C)(C)[C@@H](c2ccc(C)c(CN3C[C@@H](CC)Oc4ccccc4S3(=O)=O)c2)c2ccc3c(nnn3CC)c2C)cn1` [Example 163, 2-(2-Ethoxyethoxy)-N-((S)-1-(3-(((R)-4-ethyl-1,1-dioxido-3,4-dihydro-2H-benzo[b][1,4,5]oxathiazepin-2-yl)methyl)-4-methylphenyl)-1-(1-ethyl-4-methyl-1H-benzo[d][1,2,3]triazol-5-yl)-2-methylpropan-2-yl)pyrimidine-5-carboxamide] has an EC50 of 1 to 10 nM.

Work on `CC[C@@H]1CN(Cc2cc([C@@H](c3ccc4c(nnn4CC)c3C)C(C)(C)NC(=O)c3cnc(N4CCOCC4)nc3)ccc2C)S(=O)(=O)c2ccccc2O1` [Example 164, N-((S)-1-(3-(((R)-4-Ethyl-1,1-dioxido-3,4-dihydro-2H-benzo[b][1,4,5]oxathiazepin-2-yl)methyl)-4-methylphenyl)-1-(1-ethyl-4-methyl-1H-benzo[d][1,2,3]triazol-5-yl)-2-methylpropan-2-yl)-2-morpholinopyrimidine-5-carboxamide] yielded an EC50 of 10 to 100 nM.

`CC[C@@H]1CN(Cc2cc([C@@H](c3ccc4c(nnn4CC)c3C)C(C)(C)NC(=O)c3cnc(N4CCN(C)CC4)nc3)ccc2C)S(=O)(=O)c2ccccc2O1` [Example 165, N-((S)-1-(3-(((R)-4-Ethyl-1,1-dioxido-3,4-dihydro-2H-benzo[b][1,4,5]oxathiazepin-2-yl)methyl)-4-methylphenyl)-1-(1-ethyl-4-methyl-1H-benzo[d][1,2,3]triazol-5-yl)-2-methylpropan-2-yl)-2-(4-methylpiperazin-1-yl)pyrimidine-5-carboxamide] was tested, and the EC50 was 10 to 100 nM.

`CC[C@@H]1CN(Cc2cc([C@@H](c3ccc4c(nnn4CC)c3C)C(C)(C)NC(=O)c3cccnc3)ccc2C)S(=O)(=O)c2cccnc2O1` [Example 166, N—((S)-1-(3-(((R)-4-Ethyl-1,1-dioxido-3,4-dihydro-2H-pyrido[2,3-b][1,4,5]oxathiazepin-2-yl)methyl)-4-methylphenyl)-1-(1-ethyl-4-methyl-1H-benzo[d][1,2,3]triazol-5-yl)-2-methylpropan-2-yl)nicotinamide] gave an EC50 of 1 to 10 nM.
